# Measurements as given in patent US20230126310A1 (priority 2020, published 2023).
# Structures can show the parent of a compound that is named as a salt. Square brackets hold non-standard residues; d marks the D form. Peptide text beside a SMILES is read from it. NMeF = CN[C@@H](Cc1ccccc1)C(=O)O
# Tested on: SARS-CoV-2
# Conditions: not given
Molecule,IC50 [µM],pIC50
CNS(=O)(=O)Nc1nccc(Cc2c(C)c3ccc(Oc4ncccn4)cc3oc2=O)c1F [RO5126766 (CH5126766)],5.36,5.27

# Same assay, conditions: 10 µM
row,Molecule,% Inh. (% Inhibition of SARS-CoV-2) [%]
1,CN1CC[C@@H](c2c(O)cc(O)c3c(=O)cc(-c4ccccc4Cl)oc23)[C@@H]1CO.Cl [P276-00],94.4
2,N#CC(=C(N)Sc1ccc(N)cc1)c1ccccc1C(F)(F)F [MEK1-2-inhibitor],66.9
3,c1ccc2nc(C3=NCCN3)cnc2c1 [BU-239],60.1
4,CNc1cc2c(Nc3cccc(Br)c3)ncnc2cn1 [PD-158780],98.3
5,CCOc1ccc(Nc2nc(-c3c(C)nc4ccccn34)cs2)cc1 [JK-184],65.2
6,CCc1c2c(nc3ccc(O)cc13)-c1cc3c(c(=O)n1C2)COC(=O)[C@]3(O)CC [SN-38],79.2
7,I-BET151 (GSK1210151A),56.0
8,CC1CCN(C(c2ccc(F)cc2)c2ccc(C(C)C(=O)O)cc2-c2ccc(C(F)(F)F)cc2)CC1 (stereo not shown) [TC-E-5006],94.1
9,COc1ncc2cc(C(=O)Nc3cc(C(=O)NCc4cccc(Cl)c4)ccc3Cl)c(=O)[nH]c2n1 [TC-S-7004],77.3
10,CCc1nc2ccc(Cl)cn2c1C(=O)NCc1ccc(N2CCC(c3ccc(OC(F)(F)F)cc3)CC2)cc1 [Q-203],96.9
11,CCOc1cc(C(=O)Nc2ccc(Cl)c(-c3nc4ccccc4[nH]3)c2)cc(OCC)c1OCC [SANT-2],84.1
12,O=C1NC(=O)/C(=C/c2cccc(C(F)(F)F)c2)S1 [SMI-4a],89.9
13,Cc1ccc2c(=O)c3ccccc3n(CCCN)c2c1C.O=C(O)/C=C\C(=O)O [ER-27319 maleate],101.0
14,Cc1ncc(-c2ccnc(Nc3ccc(S(C)(=O)=O)cc3)n2)n1C(C)C [AZD5438],67.2
15,CC[C@H](C)[C@@H]([C@@H](CC(=O)N1CCC[C@H]1[C@H](OC)[C@@H](C)C(=O)N[C@@H](Cc1ccccc1)c1nccs1)OC)N(C)C(=O)[C@@H](NC(=O)[C@H](C(C)C)N(C)C)C(C)C [Dolastin-10],64.3
16,Cl.O.O=CN1CCC(C(=O)NCCN2CCC(=C3c4ccccc4C=Cc4ccccc43)CC2)CC1 [AT-1015],75.4
17,O=C(CNC(=O)c1cccc(C(F)(F)F)c1)N[C@@H]1CCN(Cc2ccc(Cl)cc2)C1 [Teijin-compound-1],85.7
18,COc1ccc(CCN(C)CCCOc2ccc(S(=O)(=O)c3c(C(C)C)c4ccccc4n3C)cc2)cc1OC.O=C(O)C(=O)O [SR-33805 oxalate],67.7
19,COc1cc2c(cc1OC)CN(C(=O)[C@@H](NCc1ccncc1)C(C)(C)C)CC2 [TCS-OX2-29],52.7
20,CC(C)(C)c1cc(C(=O)/C=C/c2ccc(C(=O)O)cc2)cc(C(C)(C)C)c1 [CH55],87.5
21,Fc1ccc(CNc2ncnc3ccc(F)cc23)cc1 [spautin-1],92.1
22,CCOC(=O)c1c(C)[nH]c2ccc3c(c12)CN1CCc2cc(OC)ccc2C1O3 (stereo not shown) [PD-102807],121.8
23,CCCCCCCCc1ccc(-c2ccc(C(=O)O)cc2)cc1 [AC-55649],63.1

row,Molecule,% Inh. (% Inhibition of SARS-CoV-2) [%]
1,CSc1ccccc1Nc1nc(N2CCNCC2)nc2c(NCC3CC3)ncnc12 [KHK-IN-1 (hydrochloride)],71.8
2,Cc1ccc(-c2nn(C(C)(C)C)c3ncnc(N)c23)cc1 [PP-1],121.9
3,Cc1cc(=O)oc2c(C=O)c(O)ccc12 [4-mu-8C],106.2
4,Nc1[nH]nc2nnc(-c3c(-c4ccccc4)nn4ccccc34)cc12 [FR-180204],58.8
5,COc1ccc(CC2NCCc3c2[nH]c2ccc(C)cc32)c(Cl)c1OC (stereo not shown) [LY266097],89.3
6,C[C@H](NC(=O)c1sccc1OCc1ccc(Cl)cc1)c1ccccc1 [AS-1949490],103.1
7,Nc1nccc(Oc2ccc(NC(=O)c3c[nH]cc(-c4ccc(F)cc4)c3=O)cc2F)c1Cl [BMS 794833],98.3
8,Cl.Cl.Fc1ccc(C(OCCN2CCN(C/C=C/c3ccccc3)CC2)c2ccc(F)cc2)cc1 [GBR-13069],66.7
9,O=C(Nc1cnccc1Cl)N1CCN(Cc2ccc3c(c2)OC(F)(F)O3)CC1 [JNJ-42165279],94.9
10,Cc1ccc(-c2csc(NC(=O)c3ccccc3)n2)c(C)c1 [INH1],89.8
11,hemin,62.9
12,"COc1cc2ncnc(Nc3cccc(Cl)c3)c2cc1OC [AG-1478 (Tyrphostin AG-1478), Tyrphostin AG-1478]",73.9
13,Nc1ccc2ncnc(NCCc3ccc(Oc4ccccc4)cc3)c2c1 [QNZ (EVP4593)],95.8
14,niguldipine-(S)-(+),93.0
15,CNS(=O)(=O)Nc1nccc(Cc2c(C)c3ccc(Oc4ncccn4)cc3oc2=O)c1F [RO5126766 (CH5126766)],102.6
16,CCn1c(=O)n(C2=C(CO)CN(CC3CCCCCCC3)CC2)c2ccccc21 [trap-101],77.9
17,NC(CO)(CO)CO.Nc1nccc(Oc2ccc(NC(=O)c3cn(COP(=O)(O)O)cc(-c4ccc(F)cc4)c3=O)cc2F)c1Cl [SCR-1481B1],89.3
18,CC(C)(NS(=O)(=O)c1ccc(Oc2ccc(F)cc2)cc1)C(=O)NO [CP-471474],86.9
19,CC(C)[C@H]1c2ccc(F)cc2CC[C@@]1(CCN(C)CCCc1nc2ccccc2[nH]1)OC(=O)C1CC1 [NNC-55-0396],58.1
20,Rupatadine Fumarate,72.1
21,Cc1ccc2cc(-c3c(C)ccc(C(=O)c4c(-c5ccccc5)n(C)n(-c5ccccc5)c4=O)c3N)ccc2n1 [AMG-PERK-44],127.9
22,O=C(Cc1ccc(-c2ccc(OCCN3CCOCC3)cc2)cn1)NCc1ccccc1 [KX2-391],79.9
23,Taltobulin (trifluoroacetate),83.8

row,Molecule,% Inh. (% Inhibition of SARS-CoV-2) [%]
1,Cc1ccc(CC2(O)CCN(CCOc3ccc(O)cc3)CC2)cc1 [CO-101244],60.2
2,CC(CNS(=O)(=O)C(C)C)c1ccc(-c2ccc(C#N)cc2)cc1 (stereo not shown) [LY-404187],80.4
3,Cc1cc(-c2ccc(CC(=O)Nc3ccc(-c4cccnc4)cc3)cc2)ccn1 [Wnt-C59 (C59)],82.3
4,Cc1ccc(NC(=O)C(C)C)cc1C1CCN(Cc2ccc(Oc3ccc(F)c(F)c3)cc2)CC1 [SNAP-94847],91.4
5,CC(=O)N1CCN(CCOc2ccc(C3CCN(C4=Nn5c(nnc5C(F)(F)F)CC4)CC3)cc2)CC1 [AZD3514],96.8
6,CCN(CC)CCCCNc1ncc2cc(-c3c(Cl)cccc3Cl)c(NC(=O)NC(C)(C)C)nc2n1 [PD-161570],108.1
7,Cc1cc(/C=C2\SC(=O)N(c3ccccc3)C2=O)c(C)n1-c1cccnc1 [iCRT-14],82.5
8,COc1ccc(C[C@H]2NC[C@H](O)[C@H]2OC(C)=O)cc1 [anisomycin],88.1
9,CNC(=O)c1ccccc1Nc1nc(Nc2ccc(N3CCOCC3)cc2OC)ncc1Cl [NVP-TAE226],73.2
10,CNC[C@H](O)[C@@H](O)[C@H](O)[C@H](O)CO.CNC[C@H](O)[C@@H](O)[C@H](O)[C@H](O)CO.C[C@@H](O[C@H]1OCCN(Cc2nn(P(=O)(O)O)c(=O)[nH]2)[C@H]1c1ccc(F)cc1)c1cc(C(F)(F)F)cc(C(F)(F)F)c1 [Fosaprepitant dimeglumine salt],78.3
11,O=c1oc(-c2ccc(C(F)(F)F)cc2)nn1Cc1cc(Cl)ccc1O [BMS-191011],52.3
12,c1ccc(C(NCCNC(c2ccccc2)c2ccccc2)c2ccccc2)cc1 [AMN-082],71.9
13,CCC(C)C1O[C@]2(C=C[C@@H]1C)C[C@@H]1CC(C/C=C(\C)[C@@H](OC3C[C@H](OC)[C@@H](OC4C[C@H](OC)[C@@H](O)[C@H](C)O4)[C@H](C)O3)[C@@H](C)/C=C/C=C3\COC4[C@H](O)C(C)=CC(C(=O)O1)[C@]34O)O2 (stereo partly shown) [ABAMECTIN (avermectin B1a)],108.9
14,O=C(Nc1ccccc1Br)N[C@@H]1CCN(c2ccc(C(F)(F)F)cn2)C1 [SB705498],64.6
15,COc1ccc2nc3cc(Cl)ccc3c(Nc3cc(CN4CCCC4)c(O)c(CN4CCCC4)c3)c2n1.O=P(O)(O)O.O=P(O)(O)O.O=P(O)(O)O.O=P(O)(O)O [PYRONARIDINE TETRAPHOSPHATE],80.6
16,CNCc1ccc(C)c(NC(=O)c2ccc(Nc3nc(-c4ccccc4)c4ccccc4n3)cc2)c1 [BMS-833923 (XL139)],68.8
17,CSc1nc(-c2ccnc(NC(C)c3ccccc3)c2)c(-c2ccc(F)cc2)[nH]1 (stereo not shown) [ML-3403],50.3
18,COc1ccc(C(=O)N2CCCc3cc(C4=NNC(=O)SC4C)ccc32)cc1OC (stereo not shown) [EMD-53998],79.6
19,O=C(NCCCCCCNC(=O)ON=C1CCCCC1)ON=C1CCCCC1 [RHC-80267],63.9
20,CCOc1cc(C(C)(C)C)ccc1C1=N[C@@](C)(c2ccc(Cl)cc2)[C@@](C)(c2ccc(Cl)cc2)N1C(=O)N1CCN(CCCS(C)(=O)=O)CC1 [RG7112 (RO5045337)],88.5
21,Cc1cc(I)ccc1Nc1c(C(=O)NOCC2CC2)cc(F)c(F)c1F [PD-198306],51.6

# Same assay, conditions: 10 µM; HYDROCHLORIDE
row,Molecule,% Inh. (% Inhibition of SARS-CoV-2) [%]
1,C[n+]1c2cc(N)ccc2cc2ccc(N)cc21.[Cl-] [ACRIFLAVINIUM HYDROCHLORIDE],99.5

# Same assay, conditions: 10 µM; listed as Acriflavine hydrochloride, HYDROCHLORIDE
row,Molecule,% Inh. (% Inhibition of SARS-CoV-2) [%]
1,C[n+]1c2cc(N)ccc2cc2ccc(N)cc21.[Cl-] [ACRIFLAVINIUM HYDROCHLORIDE],69.4

# Same assay, conditions: 48 h, 10 μM
row,Molecule,% Inh. (% Inhibition of SARS-CoV-2) [%]
1,CSCC[C@H](NC(=O)[C@H](CC(C)C)NC(=O)[C@@H](Cc1c[nH]c2ccccc12)NC(=O)[C@H](Cc1ccccc1)N(C)C(=O)[C@@H](Cc1c[nH]c2ccccc12)NC(=O)[C@@H](N)CCCNC(=N)N)C(N)=O [Antagonist-G] (H-R[dW][NMeF][dW]LM-NH2; N-terminus and C-terminus assumed),58.0

# Same assay, conditions: comparative experiments, Examples 1 and 2
row,Molecule,% Inh (% inhibition of virus infection) [%]
1,MONENSIN SODIUM,103.2
